Values of other authors, collected in patent publication US10184942B2, “Natriuretic peptide receptor as a biomarker for diagnosis and prognosis of cancer” (UNIVERSITY OF SOUTH FLORIDA, priority 2011, dated 2019).

Tested on: PCa cells
Conditions: in vitro and in mice

Compound: CC[C@H](C)[C@@H]1NC(=O)[C@H](CCCNC(=N)N)NC(=O)[C@H](CC(=O)O)NC(=O)[C@H](CCSC)NC(=O)[C@H](CCCNC(=N)N)NC(=O)CNC(=O)CNC(=O)[C@H](Cc2ccccc2)NC(=O)[C@@H](NC(=O)[C@H](CO)NC(=O)[C@H](CO)NC(=O)[C@H](CCCNC(=N)N)NC(=O)[C@H](CCCNC(=N)N)NC(=O)[C@H](CC(C)C)NC(=O)[C@@H](N)CO)CSSC[C@@H](C(=O)N[C@@H](CC(N)=O)C(=O)N[C@@H](CO)C(=O)N[C@@H](Cc2ccccc2)C(=O)N[C@@H](CCCNC(=N)N)C(=O)N[C@@H](Cc2ccc(O)cc2)C(=O)O)NC(=O)CNC(=O)[C@H](CC(C)C)NC(=O)CNC(=O)[C@H](CO)NC(=O)[C@H](CCC(N)=O)NC(=O)[C@H](C)NC(=O)CNC1=O [ANP, atrial natriuretic peptide]
- proliferation of PCa cells: inhibit the proliferation

Compound: VD: vessel dilator, an ANP prohormone peptide (EVVPPQVLSEPNEEAGAALSPLPEVPPWTGEVSPAQR; Vessel dilator; UniProt P01160 56-92, looked up)
- proliferation of PCa cells: inhibit the proliferation
